Earlier results on 2 compounds are cited in patent US20080213374A1, “NANOPARTICULATE SORAFENIB FORMULATIONS” (Elan Pharma International Limited, priority 2006, published 2008).

Each structure is given as a SMILES string.

With `CNC(=O)c1cc(Oc2ccc(NC(=O)Nc3ccc(Cl)c(C(F)(F)F)c3)cc2)ccn1.Cc1ccc(S(=O)(=O)O)cc1` [Sorafenib tosylate, 4-(4-{3-[4-Chloro-3-(trifluoromethyl)phenyl]ureido}phenoxy)-N2-methylpyridine-2-carboxamide 4-methylbenzenesulfonate], the solubility in water result is “practically insoluble”. Moreover, the “solubility in PEG 400” value (PEG 400) was “soluble”. Moreover, the “solubility in aqueous media” value (aqueous media) is on record as “practically insoluble”. For the same compound, the solubility in ethanol entry (ethanol) is recorded as “slightly soluble”.

As to `CNC(=O)c1cc(Oc2ccc(NC(=O)Nc3ccc(Cl)c(C(F)(F)F)c3)cc2)ccn1` [Sorafenib], the solubility in water entry was “practically insoluble”.
